A short description of data set [1]: Clearance in rat after iv administration. It is filed as ADME, organism-based. As to conditions: in vivo.
A short description of data set [2]: Volume of distribution at steady state in rat after iv administration. The format is ADME, organism-based. Particulars: in vivo.
Data set [3] is described as follows: Clearance in dog after iv administration. It is filed as ADME, organism-based, Canis lupus familiaris. As to conditions: in vivo.
Data set [4] can be described thus: Volume of distribution at steady state in dog after iv administration. The format is ADME, organism-based, Canis lupus familiaris. As to conditions: in vivo, read-out: Vdss.
The nature of data set [5]: Clearance in monkey after iv administration. Particulars: macaca, in vivo. It is filed as ADME, organism-based.
Data set [6] can be described thus: Volume of distribution at steady state in monkey after iv administration. The format is ADME, organism-based. Particulars: macaca, in vivo, read-out: Vdss.
Data set [7] is described as follows: Clearance in human after iv administration. The format is ADME, organism-based. Particulars: in vivo.
A short description of data set [8]: Volume of distribution at steady state in human after iv administration. As to conditions: in vivo, read-out: Vdss. It is filed as ADME, organism-based.

One may read the clearance as a measure of how efficiently the substance is removed, as volume per time. Usually Vdss stands for the apparent volume that relates the amount in the body to the concentration in plasma or blood. For `CC[C@]1(O)C[C@@H]2CN(CCc3c([nH]c4ccccc34)[C@@](C(=O)OC)(c3cc4c(cc3OC)N(C)[C@H]3[C@@](O)(C(=O)OC)[C@H](OC(C)=O)[C@]5(CC)C=CCN6CC[C@]43[C@@H]65)C2)C1` [VINBLASTINE], the clearance was determined as 25 mL/min/kg in data set [1], 22 mL/min/kg in data set [3], 7 mL/min/kg in data set [5] and 12 mL/min/kg in data set [7]. Moreover, in data set [2], the Vdss turned out to be 12 L/kg. Moreover, the figures for the Vd in data set [4], in data set [6] and in data set [8] were 2.3 L/kg, 1.5 L/kg and 24 L/kg, respectively.
As to `CC[C@]1(O)C[C@H]2CN(CCc3c([nH]c4ccccc34)[C@@](C(=O)OC)(c3cc4c(cc3OC)N(C=O)[C@H]3[C@@](O)(C(=O)OC)[C@H](OC(C)=O)[C@]5(CC)C=CCN6CC[C@]43[C@@H]65)C2)C1` [VINCRISTINE], the clearance in data set [1] was found to be 2 mL/min/kg; in data set [3], 9.8 mL/min/kg; in data set [5], 4.8 mL/min/kg; in data set [7] it was 1.8 mL/min/kg. The molecule further came in with a Vdss in data set [2] of 0.41 L/kg. The Vd in data set [4] is 3.1 L/kg; in data set [6], 1.3 L/kg; in data set [8] it was 8 L/kg.
For the molecule `CC(=O)CC(c1ccccc1)c1c(O)c2ccccc2oc1=O` (centres undefined) [WARFARIN], the clearance was 0.36 mL/min/kg in data set [1], 0.3 mL/min/kg in data set [3], 0.13 mL/min/kg in data set [5] and 0.04 mL/min/kg in data set [7]. In addition, the Vdss in data set [2] came out at 0.22 L/kg. In addition, the results for the Vd in data set [4], in data set [6] and in data set [8] were 0.28 L/kg, 0.11 L/kg and 0.11 L/kg, respectively.
